Values after ≈ are worked out from the molar mass of the structure shown.

As usually defined, the MIC is the smallest concentration in the dilution series that meets the test's criterion for growth inhibition. Broadly, the EC50 is the concentration needed to bring the measured effect to its halfway point.

One assay relates to Vibrio vulnificus. In words: Marine bacteria microdilution MIC. The note with it: V. vulnificus. (Dilution methods test growth across graded concentrations, often in twofold steps.)
Assay [1] can be described thus: Dye dispersion assay from synthetic vesicles. The note with it: 5 minutes. The procedure:
Finally, given that active compounds are characterized by a polar head group and a lipophilic tail, it was probed whether compounds 15 and 19 were eliciting their activity via a pore forming mechanism. Compound 1 was used as a control. This was probed via a dye dispersion assay from synthetic vesicles (Liu et al., J. Am. Chem. Soc., 2001, 123, 7553-7559). Two types of vesicles were prepared, one containing 1-palmitoyl-2-oleoyl-sn-glycero-3-phosphocholine (POPC) and the other containing 1-palmitoyl-2-oleoyl-sn-glycero-3-phosphoglycerol (POPG). POPC mimics typical cell membranes encountered for mammalian red blood cells, while POPG mimics the negatively charged lipids encountered in bacterial membranes. In 5 minutes, at 25 μM, compounds 15 and 19 elicited 20% dye leakage from the POPG vesicles while they elicited 10% and 15% dye leakage from the POPC vesicles respectively. However, in 5 minutes at 500 μM, compounds 15 and 19 elicited 78% and 85% dye leakage from the POPG vesicles respectively. In 5 minutes at 25 μM, control compound 1 elicited 9% and 18% leak dye leakage from the POPC and POPG vesicles respectively, while in 5 minutes at 500 μM 1 elicited 15% and 50% leakage from the POPC and POPG vesicles. Given this differential response, and without wishing to be bound by theory, it is likely that compounds 15 and 19 are inducing microbicidal activity through a simple pore-forming mechanism.

In assay [2] the test system is Rhodospirillum salexigens. In words: Marine bacteria microdilution MIC. The note with it: R. salexigens.
For the next assay, the system named is Vibrio cholerae. In words: Marine bacteria microdilution MIC. Format: cell-based. The note with it: V. cholerae.
In a further assay the test system is E. coli. The experiment in a line: Broth microdilution MIC. Format: cell-based. The note with it: Escherichia coli. As for the experimental part: (§1) Once it was determined that this specific 4,5-disubstitution pattern imparted microbicidal activity onto the 2-AI framework, this activity was quantified by measuring the MIC of each derivative against a variety of representative pathogenic bacterial strains using the microdilution protocol (CSLI, Performance Standards for Antimicrobial Suceptibility Testing; Nineteenth Informational Supplement, Clinical and Laboratory Standards Institute, Wayne, Pa., 2009). E. coli, MDRAB, P. aeruginosa, MRSA, MSSA, S. epidermidis and VRE were used for initial evaluation. From this screen, compound 15 was determined to be the lead compound and had MIC values (μg/mL) of 2, 2, 1, 0.5, 0.25, and 1 against E. coli, MDRAB, MRSA, VRE, S. Epidermidis and MSSA.
(§2) S. aureus (ATCC #29213), S. epidermidis (ATCC #29886), MRSA (ATCC # BAA-44), MDRAB (ATCC # BAA-1605), vancomycin resistant Enterococcus faecium (VRE) (ATCC #51559) and E. coli (ATCC #35695) were obtained from the ATCC. Mechanically difibrinated sheep blood (DSB100) was obtained from Hemostat Labs. Mueller-Hinton medium was purchased from Fluka (#70192).
(§3) Broth Microdilution Method for MIC Determination.

The test system of the next assay is S. epidermidis. The experiment in a line: Broth microdilution MIC. It is filed as cell-based. The note with it: Staphylococcus epidermidis, read-out: MIC. As for the experimental part: as §1, §2, §3
Another assay relates to MDRAB. In words: Broth microdilution MIC. It is filed as cell-based. The procedure: as §1, §2, §3
Assay [3] relates to MRSA. The experiment in a line: Dispersion of pre-formed biofilms. It is filed as cell-based, methicillin-resistant S. aureus. The note with it: Staphylococcus aureus, read-out: EC50, 50% dispersion of a pre-formed biofilm. The procedure: The ability of 15 and 19 to disperse pre-formed biofilms was also determined for all of the aforementioned bacterial strains (both marine and terrestrial). To quantify this effect, the EC50 value of each compound against each bacterial strain was determined, where EC50 is defined as the concentration of compound that elicits 50% dispersion of a pre-formed biofilm. Both compounds are able to disperse pre-formed biofilms at low micromolar concentrations. These concentrations are also microbicidal to planktonic bacteria. […]
Preformed Biofilms: Dispersion assays were performed by taking an overnight culture of bacterial strain and subculturing it at an OD600 of 0.01 into the necessary medium (brain heart infusion for E. faecium, tryptic soy broth with a 0.5% glucose supplement (TSBG) for MRSA, S. aureus and S. epidermidis, Luria-Bertani (LB) medium for MDRAB and E. coli, and tryptic soy broth with a 0.5% glucose supplement and a 3.0% NaCl supplement (TGN) for R. salexigens, V. cholerae, V. vulnificus and L. anguillarum.) The resulting bacterial suspension was aliquoted (100 μL) into the wells of a 96-well PVC microtiter plate. […] Biofilm dispersion was quantitated by measuring the OD540 of each well in which a negative control lane wherein no biofilm was formed served as a background and was subtracted out.

The subject of assay [4] is MRSA. In words: Broth microdilution MIC. It is filed as cell-based, methicillin-resistant S. aureus. The note with it: Staphylococcus aureus. As for the experimental part:
as §1, §2, §3

The test system of another assay is Listonella anguillarum. The experiment in a line: Marine bacteria microdilution MIC. The note with it: L. anguillarum.

On to `CCCCCCc1[nH]c(N)nc1CCCCCc1ccccc1` [Compound 19, 5-hexyl-4-(5-phenylpentyl)-1H-imidazol-2-amine], for which the minimum inhibitory concentration (MIC) against Vibrio vulnificus (Vibrio vulnificus) was 2.2 mg/L (≈ 7.02 µM); in assay [2] it was 1.09 mg/L (≈ 3.48 µM); in assay [2] (Rhodothalassium salexigens) it was 1.1 mg/L (≈ 3.51 µM); against Vibrio cholerae, 2.19 mg/L (≈ 6.99 µM); in the assay with Vibrio cholerae (Vibrio cholerae), 2.2 mg/L (≈ 7.02 µM); in the assay on E. coli it was 2 mg/L (≈ 6.38 µM). Moreover, the minimal inhibitory concentration (MIC) in the assay on S. epidermidis came out at 0.5 mg/L (≈ 1.59 µM); against MDRAB, 4 mg/L (≈ 12.8 µM); in the assay with MRSA [4], 1 mg/L (≈ 3.19 µM); against Listonella anguillarum (Vibrio anguillarum) it was 2.2 mg/L (≈ 7.02 µM). Moreover, the dye leakage in assay [1] (POPC vesicles, 25 μM) was determined as 15%; in [1] (POPG vesicles, 25 μM), 20%; in [1] (POPG vesicles, 500 μM), 85%. For the same molecule, the EC50 in the assay on MRSA [3] was 74.9 ± 9.8 µM.
With `CCCCCc1[nH]c(N)nc1CCCCCc1ccccc1` [Compound 15, 5-pentyl-4-(5-phenylpentyl)-1H-imidazol-2-amine], the MIC against Vibrio vulnificus turned out to be 2.10 mg/L (≈ 7.01 µM); against Vibrio vulnificus (Vibrio vulnificus), 2.1 mg/L (≈ 7.01 µM); in assay [2] it was 2.10 mg/L (≈ 7.01 µM); in assay [2] (Rhodothalassium salexigens), 2.1 mg/L (≈ 7.01 µM); against Vibrio cholerae, 4.20 mg/L (≈ 14 µM); against Vibrio cholerae (Vibrio cholerae), 4.2 mg/L (≈ 14 µM). Besides, the MIC with E. coli was determined as 2 mg/L (≈ 6.68 µM); in the assay on S. epidermidis it was 0.25 mg/L (≈ 0.835 µM); in the assay with MDRAB, 2 mg/L (≈ 6.68 µM); in the assay with MRSA [4], 1 mg/L (≈ 3.34 µM); against Listonella anguillarum it was 2.10 mg/L (≈ 7.01 µM); in the assay on Listonella anguillarum (Vibrio anguillarum), 2.1 mg/L (≈ 7.01 µM). Further, the dye leakage in assay [1] (POPC vesicles, 25 μM) stood at 10%; in assay [1] (POPG vesicles, 25 μM) it was 20%; in [1] (POPG vesicles, 500 μM) it was 78%. The concentration for a half-maximal effect (EC50) in the assay with MRSA [3] is 33.9 ± 3.9 µM.
